Values joined by “and” are separate entries in the source; they are usually repeats but may differ in a detail not shown here. Identical values can stand only once.
Experiment: xn = mol fraction of the nth substance listed
Conditions: Fluid (supercritical or subcritical phases), Frequency=5 MHz, Pulse-echo method

O=C=O [carbon dioxide] + CO
Conditions	speed of sound
313.15 K, 90000 kPa, x1 = 0.97	980.1 m/s
313.15 K, 100110 kPa, x1 = 0.97	1019.5 m/s
313.15 K, 109900 kPa, x1 = 0.97	1055.1 m/s
313.15 K, 120040 kPa, x1 = 0.97	1089.6 m/s
313.15 K, 140110 kPa, x1 = 0.97	1152.5 m/s
313.15 K, 159960 kPa, x1 = 0.97	1208.8 m/s
313.15 K, 179840 kPa, x1 = 0.97	1260.7 m/s
323.14 K, 24960 kPa, x1 = 0.925	536.3 m/s and 537.4 m/s
323.14 K, 24980 kPa, x1 = 0.925	537.5 m/s
323.14 K, 25000 kPa, x1 = 0.925	537.5 m/s
323.14 K, 29980 kPa, x1 = 0.925	591.2 m/s
323.14 K, 29990 kPa, x1 = 0.925	591.2 m/s and 590.7 m/s and 591.5 m/s
323.14 K, 34960 kPa, x1 = 0.925	636.5 m/s and 637.2 m/s
323.14 K, 34980 kPa, x1 = 0.925	637.4 m/s
323.14 K, 34990 kPa, x1 = 0.925	637.5 m/s
323.14 K, 39980 kPa, x1 = 0.925	678 m/s and 677.9 m/s
323.14 K, 39990 kPa, x1 = 0.925	678.6 m/s
323.14 K, 40000 kPa, x1 = 0.925	678.2 m/s
323.14 K, 44980 kPa, x1 = 0.925	714.6 m/s and 714.8 m/s
323.14 K, 45000 kPa, x1 = 0.925	714.7 m/s
323.14 K, 49960 kPa, x1 = 0.925	748 m/s
323.14 K, 49980 kPa, x1 = 0.925	748.4 m/s and 748.2 m/s
323.14 K, 50000 kPa, x1 = 0.925	748.4 m/s
323.14 K, 54960 kPa, x1 = 0.925	779.2 m/s
323.14 K, 54980 kPa, x1 = 0.925	779.1 m/s
323.14 K, 55000 kPa, x1 = 0.925	779.3 m/s
323.14 K, 55010 kPa, x1 = 0.925	779.4 m/s
323.14 K, 59980 kPa, x1 = 0.925	807.9 m/s and 808.1 m/s
323.14 K, 59990 kPa, x1 = 0.925	808.2 m/s
323.14 K, 60030 kPa, x1 = 0.925	808.2 m/s
323.14 K, 64970 kPa, x1 = 0.925	835.2 m/s and 835.3 m/s and 835.1 m/s
323.14 K, 64990 kPa, x1 = 0.925	835.4 m/s
323.14 K, 69970 kPa, x1 = 0.925	860.9 m/s and 860.8 m/s
323.14 K, 69980 kPa, x1 = 0.925	861 m/s
323.14 K, 69990 kPa, x1 = 0.925	860.9 m/s
323.14 K, 74950 kPa, x1 = 0.925	885 m/s
323.14 K, 74990 kPa, x1 = 0.925	885.2 m/s
323.14 K, 75000 kPa, x1 = 0.925	885.4 m/s
323.14 K, 75060 kPa, x1 = 0.925	885.5 m/s
323.14 K, 79970 kPa, x1 = 0.925	908.3 m/s
323.14 K, 79990 kPa, x1 = 0.925	908.5 m/s and 908.4 m/s
323.14 K, 80000 kPa, x1 = 0.925	908.4 m/s
323.14 K, 89990 kPa, x1 = 0.925	951.7 m/s
323.14 K, 90000 kPa, x1 = 0.925	951.8 m/s and 952 m/s
323.14 K, 99950 kPa, x1 = 0.925	991.5 m/s
323.14 K, 100000 kPa, x1 = 0.925	992.1 m/s
323.14 K, 100010 kPa, x1 = 0.925	991.8 m/s and 991.7 m/s
323.14 K, 109960 kPa, x1 = 0.925	1028.8 m/s
323.14 K, 109980 kPa, x1 = 0.925	1029.1 m/s and 1028.9 m/s
323.14 K, 109990 kPa, x1 = 0.925	1029 m/s
323.14 K, 119970 kPa, x1 = 0.925	1063.9 m/s and 1063.8 m/s
323.14 K, 119990 kPa, x1 = 0.925	1063.9 m/s
323.14 K, 129960 kPa, x1 = 0.925	1096.8 m/s
323.14 K, 129980 kPa, x1 = 0.925	1096.8 m/s
323.14 K, 129990 kPa, x1 = 0.925	1096.8 m/s
323.14 K, 130020 kPa, x1 = 0.925	1096.9 m/s
323.14 K, 139960 kPa, x1 = 0.925	1128 m/s
323.14 K, 139990 kPa, x1 = 0.925	1128 m/s and 1128.1 m/s
323.14 K, 140000 kPa, x1 = 0.925	1128.1 m/s
323.14 K, 149960 kPa, x1 = 0.925	1157.6 m/s
323.14 K, 149980 kPa, x1 = 0.925	1157.7 m/s
323.14 K, 149990 kPa, x1 = 0.925	1157.7 m/s
323.14 K, 150010 kPa, x1 = 0.925	1157.8 m/s
323.14 K, 159990 kPa, x1 = 0.925	1186.2 m/s
323.14 K, 160000 kPa, x1 = 0.925	1187 m/s
323.14 K, 160010 kPa, x1 = 0.925	1186 m/s
323.14 K, 160050 kPa, x1 = 0.925	1186.2 m/s
323.14 K, 169940 kPa, x1 = 0.925	1213.1 m/s
323.14 K, 169980 kPa, x1 = 0.925	1213.1 m/s and 1213.3 m/s
323.14 K, 170010 kPa, x1 = 0.925	1213.2 m/s
323.14 K, 179960 kPa, x1 = 0.925	1239.4 m/s
323.14 K, 180000 kPa, x1 = 0.925	1239.1 m/s and 1239.5 m/s
323.14 K, 180100 kPa, x1 = 0.925	1239.2 m/s
323.14 K, 189980 kPa, x1 = 0.925	1263.9 m/s
323.14 K, 190000 kPa, x1 = 0.925	1264.3 m/s
323.14 K, 190010 kPa, x1 = 0.925	1264.5 m/s
323.14 K, 190050 kPa, x1 = 0.925	1264.6 m/s
323.15 K, 24960 kPa, x1 = 0.8502	549.5 m/s
323.15 K, 25000 kPa, x1 = 0.7534	585.5 m/s
323.15 K, 29950 kPa, x1 = 0.7534	635.7 m/s
323.15 K, 30020 kPa, x1 = 0.8502	602.8 m/s
323.15 K, 35040 kPa, x1 = 0.7534	680.4 m/s
323.15 K, 35100 kPa, x1 = 0.8502	648.9 m/s
323.15 K, 40000 kPa, x1 = 0.7534	719.1 m/s
323.15 K, 40050 kPa, x1 = 0.8502	688.4 m/s
323.15 K, 45010 kPa, x1 = 0.8502	724.5 m/s
323.15 K, 45070 kPa, x1 = 0.7534	755 m/s
323.15 K, 49920 kPa, x1 = 0.8502	757.3 m/s
323.15 K, 50420 kPa, x1 = 0.7534	789.8 m/s
323.15 K, 55040 kPa, x1 = 0.8502	788.7 m/s
323.15 K, 55120 kPa, x1 = 0.7534	818.2 m/s
323.15 K, 59980 kPa, x1 = 0.8502	817.2 m/s
323.15 K, 60110 kPa, x1 = 0.7534	846.6 m/s
323.15 K, 64840 kPa, x1 = 0.8502	843.5 m/s
323.15 K, 65810 kPa, x1 = 0.7534	876.8 m/s
323.15 K, 69880 kPa, x1 = 0.8502	869.3 m/s
323.15 K, 70220 kPa, x1 = 0.7534	899.1 m/s
323.15 K, 75110 kPa, x1 = 0.8502	894.6 m/s
323.15 K, 75220 kPa, x1 = 0.7534	923.1 m/s
323.15 K, 80180 kPa, x1 = 0.8502	918 m/s
323.15 K, 89680 kPa, x1 = 0.8502	959.3 m/s
323.15 K, 90000 kPa, x1 = 0.7534	988.1 m/s
323.15 K, 99900 kPa, x1 = 0.8502	1000.3 m/s
323.15 K, 100230 kPa, x1 = 0.7534	1029 m/s
323.15 K, 109760 kPa, x1 = 0.8502	1037.3 m/s
323.15 K, 109960 kPa, x1 = 0.7534	1065.3 m/s
323.15 K, 119510 kPa, x1 = 0.8502	1071.6 m/s
323.15 K, 120580 kPa, x1 = 0.7534	1102.5 m/s
323.15 K, 139890 kPa, x1 = 0.8502	1137.2 m/s
323.15 K, 140520 kPa, x1 = 0.7534	1166.6 m/s
323.15 K, 160410 kPa, x1 = 0.7534	1224.7 m/s
323.15 K, 180460 kPa, x1 = 0.7534	1278.6 m/s
323.16 K, 69980 kPa, x1 = 0.9803	855.3 m/s
323.16 K, 74960 kPa, x1 = 0.9803	879.8 m/s
323.16 K, 79950 kPa, x1 = 0.9803	903.2 m/s
323.16 K, 89640 kPa, x1 = 0.9803	945.6 m/s
323.16 K, 99690 kPa, x1 = 0.9803	986.1 m/s
323.16 K, 110360 kPa, x1 = 0.9803	1025.6 m/s
323.16 K, 120030 kPa, x1 = 0.9803	1059.8 m/s
323.16 K, 129970 kPa, x1 = 0.9803	1092.5 m/s
323.16 K, 140230 kPa, x1 = 0.9803	1124.5 m/s
323.16 K, 150140 kPa, x1 = 0.9803	1153.8 m/s

Source: the NIST ThermoML archive (doi:10.1016/j.jct.2016.03.026)
